System: ob/ob mouse
Assay: Antidiabetic and hypolipaemic effect in the ob/ob mouse
Assay type: in vivo
Description: Mutations in laboratory animals and also different sensitivities to dietary regimens have allowed the development of animal models having non-insulin-dependent diabetes and hyperlipidaemia associated with obesity and with resistance to insulin. Genetic mice models (ob/ob) (Diabetes, 1982, 31 (1), 1-6) and Zucker (fa/fa) rats have been developed by various laboratories in order to understand the physiopathology of those diseases and test the effectiveness of new antidiabetic compounds (Diabetes, 1983, 32, 830-838).
The 10-week-old male ob/ob mouse (Harlan) is used for the in vivo tests. The animals are kept in a light-darkness cycle of 12 hours at 25° C. This mouse has a basal hyperglycaemia of 2 g/l. The animals are randomly selected with regard to their glycaemia to form groups of eight. […] The control group receives the solvents under the same conditions as the treated groups. The activity of the products is evaluated by measuring glycaemia, insulinaemia and triglyceridaemia 24 hours after the final administration and by measuring body weight daily.

[1] = 3 mg/kg oral, once per day for four days, 24 hours after final administration

Structure (SMILES) | reduction of glycaemia vs control mice [1] [%] | reduction of insulinaemia vs control mice [1] [%] | reduction of triglyceridaemia vs control mice [1] [%] | reduction in glycaemia (1 mg/kg) [%] | reduction in insulinaemia (1 mg/kg) [%] | reduction in the weight gain observed in the ob/ob control mice (1 mg/kg) [%] | reduction in triglyceridaemia (1 mg/kg) [%]
O=C(c1ccc2c(c1)sc(=O)n2CCOc1ccc(CC(OCC(F)(F)F)C(=O)O)cc1)C1CC1 (stereo not shown) [Example 2, 3-{4-[2-(6-(Cyclopropylcarbonyl)-2-oxo-1,3-benzothiazol-3(2H)-yl)-ethoxy]phenyl}-2-(2,2,2-trifluoroethoxy)propanoic acid] | 42 | 71 | 45 | – | – | – | –
O=C(c1ccc2c(c1)sc(=O)n2CCOc1ccc(C[C@H](OCC(F)(F)F)C(=O)[O-])cc1)C1CC1.[Na+] [Example 9, Sodium (S)-3-{4-[2-(6-(cyclopropylcarbonyl)-2-oxo-1,3-benzothiazol-3(2H)-yl)ethoxy]phenyl}-2-(2,2,2-trifluoroethoxy)propanoate] | – | – | – | 39 | 41 | 14 | 52

From patent publication US20090239917A1, “Heterocyclic Cycloalkyl Compounds, a Process for their Preparation and Pharmaceutical Compositions Containing Them” (Les Laboratoires Servier, priority 2006, published 2009)
